According to ChEMBL document CHEMBL5390283, “Discovery of PVD-06 as a Subtype-Selective and Efficient PTPN2 Degrader” (J Med Chem, 2023):
pEC50, pIC50: −log10 of the molar value. Activity calls are given as the source filed them. The rule behind the calls is not given here.

Legend:
[1] = molecular target: T1, Tyrosine-protein phosphatase non-receptor type 1 (Homo sapiens, UniProt P18031); assay: Inhibition of 6xHis-tagged PTP1B (unknown origin) Escherichia coli BL21 (DE3)-RIL using OMFP as substrate incubated for 30 mins by fluorescence based assay
T1 sequence (P18031 whole entry): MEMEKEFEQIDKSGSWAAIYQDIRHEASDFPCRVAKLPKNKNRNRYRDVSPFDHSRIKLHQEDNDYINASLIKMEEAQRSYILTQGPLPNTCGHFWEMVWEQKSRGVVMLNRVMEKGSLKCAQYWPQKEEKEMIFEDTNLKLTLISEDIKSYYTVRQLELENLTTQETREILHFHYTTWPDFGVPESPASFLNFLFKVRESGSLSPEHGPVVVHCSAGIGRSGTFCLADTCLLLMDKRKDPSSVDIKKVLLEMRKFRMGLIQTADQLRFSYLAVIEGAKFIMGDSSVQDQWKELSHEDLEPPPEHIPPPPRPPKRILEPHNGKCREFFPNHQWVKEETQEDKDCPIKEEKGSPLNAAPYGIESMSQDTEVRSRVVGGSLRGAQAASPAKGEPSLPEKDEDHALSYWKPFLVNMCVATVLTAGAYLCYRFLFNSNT

[2] = molecular target: T2, Tyrosine-protein phosphatase non-receptor type 2 (Homo sapiens, UniProt P17706); assay: Inhibition of PTPN2 (unknown origin) using DiFMUP as substrate by […] based assay
T2 sequence (P17706 whole entry): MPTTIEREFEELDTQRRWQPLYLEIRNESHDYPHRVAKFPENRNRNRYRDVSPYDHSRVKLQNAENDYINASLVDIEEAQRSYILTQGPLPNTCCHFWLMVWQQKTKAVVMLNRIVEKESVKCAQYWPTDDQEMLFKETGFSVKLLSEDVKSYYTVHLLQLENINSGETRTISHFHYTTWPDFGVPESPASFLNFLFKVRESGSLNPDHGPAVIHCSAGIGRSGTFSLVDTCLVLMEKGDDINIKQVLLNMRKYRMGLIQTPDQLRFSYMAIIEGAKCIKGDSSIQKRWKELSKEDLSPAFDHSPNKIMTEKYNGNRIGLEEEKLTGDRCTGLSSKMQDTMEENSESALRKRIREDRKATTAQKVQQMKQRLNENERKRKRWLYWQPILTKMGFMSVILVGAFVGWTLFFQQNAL

[3] = molecular target: T1, Tyrosine-protein phosphatase non-receptor type 1; assay: Inhibition of PTP1B (unknown origin) using DiFMUP as substrate by […] based assay
[4] = molecular target: T3, von Hippel-Lindau disease tumor suppressor/Tyrosine-protein phosphatase non-receptor type 2 (Homo sapiens, UniProt P17706+P40337); assay: PROTAC activity at VHL/PTPN2 in human Jurkat cells assessed as induction of PTPN2 degradation at 100 nM by Western blot analysis relative to control; assay type: cell-based
Target sequence in this assay (P40337 whole entry, looked up, one chain of several): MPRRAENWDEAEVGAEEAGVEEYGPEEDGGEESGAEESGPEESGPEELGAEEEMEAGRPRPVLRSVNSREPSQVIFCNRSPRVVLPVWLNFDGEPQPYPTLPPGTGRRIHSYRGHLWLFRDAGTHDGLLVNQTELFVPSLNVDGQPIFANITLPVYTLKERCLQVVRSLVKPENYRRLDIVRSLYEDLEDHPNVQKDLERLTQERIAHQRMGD

[5] = molecular target: T3, von Hippel-Lindau disease tumor suppressor/Tyrosine-protein phosphatase non-receptor type 2; assay: PROTAC activity at VHL/PTPN2 in human Jurkat cells assessed as induction of PTPN2 degradation at 1 uM by Western blot analysis relative to control; assay type: cell-based
Target sequence in this assay (P40337 whole entry, looked up, one chain of several): as above

[6] = molecular target: T3, von Hippel-Lindau disease tumor suppressor/Tyrosine-protein phosphatase non-receptor type 2; assay: PROTAC activity at VHL/PTPN2 in human Jurkat cells assessed as induction of PTPN2 degradation at 10 uM by Western blot analysis relative to control; assay type: cell-based
Target sequence in this assay (P40337 whole entry, looked up, one chain of several): as above

[7] = molecular target: T3, von Hippel-Lindau disease tumor suppressor/Tyrosine-protein phosphatase non-receptor type 2; assay: PROTAC activity at VHL/PTPN2 in human Jurkat cells assessed as induction of PTPN2 degradation by Western blot analysis; assay type: cell-based
Target sequence in this assay (P40337 whole entry, one chain of several): as the sequence (P40337 whole entry, looked up, one chain of several) above

[8] = molecular target: von Hippel-Lindau disease tumor suppressor/Tyrosine-protein phosphatase non-receptor type 1 (Homo sapiens, UniProt P18031+P40337); assay: PROTAC activity at VHL/PTP1B in human Jurkat cells assessed as induction of PTP1B degradation by Western blot analysis; assay type: cell-based
[9] = molecular target: T3, von Hippel-Lindau disease tumor suppressor/Tyrosine-protein phosphatase non-receptor type 2; assay: PROTAC activity at VHL/PTPN2 in human Jurkat cells assessed as induction of PTPN2 degradation at 1 uM incubated for 24 hrs by label free proteomic analysis; assay type: cell-based
Target sequence in this assay (P40337 whole entry, looked up, one chain of several): as above

[10] = tested on: Jurkat; assay: Effect on PTPN1 level in human Jurkat cells at 1 uM incubated for 24 hrs by label free proteomic analysis; assay type: functional, cell-based
[11] = tested on: Jurkat; assay: Effect on PTPN6 level in human Jurkat cells at 1 uM incubated for 24 hrs by label free proteomic analysis; assay type: functional, cell-based
[12] = tested on: Jurkat; assay: Effect on PTPN7 level in human Jurkat cells at 1 uM incubated for 24 hrs by label free proteomic analysis; assay type: functional, cell-based
[13] = tested on: Jurkat; assay: Effect on PTPN9 level in human Jurkat cells at 1 uM incubated for 24 hrs by label free proteomic analysis; assay type: functional, cell-based
[14] = tested on: Jurkat; assay: Effect on PTPN11 level in human Jurkat cells at 1 uM incubated for 24 hrs by label free proteomic analysis; assay type: functional, cell-based
[15] = tested on: Jurkat; assay: Effect on PTPN18 level in human Jurkat cells at 1 uM incubated for 24 hrs by label free proteomic analysis; assay type: functional, cell-based
[16] = tested on: Jurkat; assay: Effect on PTPN23 level in human Jurkat cells at 1 uM incubated for 24 hrs by label free proteomic analysis; assay type: functional, cell-based
[17] = molecular target: T4, von Hippel-Lindau disease tumor suppressor/Receptor-type tyrosine-protein phosphatase N2 (Mus musculus) (UniProt P40338+P80560); assay: PROTAC activity at VHL/PTPN2 in mouse B16-F10 cells assessed as induction of PTPN2 degradation at 0.013 to 10 uM by Western blot analysis; assay type: cell-based; conditions: dose 0.013-10 µM
[18] = molecular target: T4, von Hippel-Lindau disease tumor suppressor/Receptor-type tyrosine-protein phosphatase N2 (Mus musculus); assay: PROTAC activity at VHL/PTPN2 in mouse splenocytes assessed as induction of PTPN2 degradation at 0.013 to 10 uM by Western blot analysis; assay type: cell-based; conditions: Splenocyte, dose 0.013-10 µM
[19] = tested on: B16-F10; assay: Effect on PTP1B level in mouse B16-F10 cells at 0.013 to 10 uM by Western blot analysis; assay type: functional, cell-based; conditions: dose 0.013-10 µM
[20] = tested on: B16-F10; assay: Effect on SHP-1 level in mouse B16-F10 cells at 0.013 to 10 uM by Western blot analysis; assay type: functional, cell-based; conditions: dose 0.013-10 µM
[21] = tested on: B16-F10; assay: Effect on SHP-2 level in mouse B16-F10 cells at 0.013 to 10 uM by Western blot analysis; assay type: functional, cell-based; conditions: dose 0.013-10 µM
[22] = tested on: Splenocyte; assay: Effect on PTP1B level in mouse splenocytes at 0.013 to 10 uM by Western blot analysis; assay type: functional, cell-based; conditions: dose 0.013-10 µM
[23] = tested on: Splenocyte; assay: Effect on SHP-1 level in mouse splenocytes at 0.013 to 10 uM by Western blot analysis; assay type: functional, cell-based; conditions: dose 0.013-10 µM
[24] = tested on: Splenocyte; assay: Effect on SHP-2 level in mouse splenocytes cells at 0.013 to 10 uM by Western blot analysis; assay type: functional, cell-based; conditions: dose 0.013-10 µM
[25] = molecular target: T3, von Hippel-Lindau disease tumor suppressor/Tyrosine-protein phosphatase non-receptor type 2; assay: PROTAC activity at VHL/PTPN2 in human HepG2 cells assessed as induction of PTPN2 degradation at 0.013 to 10 uM by Western blot analysis; assay type: cell-based; conditions: dose 0.013-10 µM
Target sequence in this assay (P40337 whole entry, looked up, one chain of several): as above

[26] = tested on: HepG2; assay: Effect on PTP1B level in human HepG2 cells at 0.013 to 10 uM by Western blot analysis; assay type: functional, cell-based; conditions: dose 0.013-10 µM
[27] = molecular target: T3, von Hippel-Lindau disease tumor suppressor/Tyrosine-protein phosphatase non-receptor type 2; assay: PROTAC activity at VHL/PTPN2 in human Jurkat cells assessed as induction of PTPN2 degradation at 1 uM by Western blot analysis; assay type: cell-based; conditions: time 1-48 hrs, TDE = time-dependent effect
Target sequence in this assay (P40337 whole entry, looked up, one chain of several): as above

[28] = tested on: Jurkat; assay: Effect on PTP1B level in human Jurkat cells at 1 uM incubated for 1 to 48 hrs by Western blot analysis; assay type: functional, cell-based; conditions: time 1-48 hrs
[29] = molecular target: T3, von Hippel-Lindau disease tumor suppressor/Tyrosine-protein phosphatase non-receptor type 2; assay: PROTAC activity at VHL/PTPN2 in human Jurkat cells assessed as increase in STAT1 phosphorylation incubated for 23 hrs followed by IFN-gamma stimulation for 1 hr by Western blot analysis; assay type: cell-based; conditions: dose <= 10.0 µM, time 24.0 hrs
[30] = molecular target: T3, von Hippel-Lindau disease tumor suppressor/Tyrosine-protein phosphatase non-receptor type 2; assay: PROTAC activity at VHL/PTPN2 in IFN-gamma-stimulated human Jurkat cells assessed as induction of PTPN2 degradation at 0.1 to 10 uM incubated for 24 hrs by Western blot analysis; assay type: cell-based; conditions: dose 0.1-10 µM
[31] = molecular target: T3, von Hippel-Lindau disease tumor suppressor/Tyrosine-protein phosphatase non-receptor type 2; assay: PROTAC activity at VHL/PTPN2 in IFN-gamma-stimulated human Jurkat cells assessed as increase in STAT1 phosphorylation at 0.1 to 10 uM incubated for 24 hrs by Western blot analysis; assay type: cell-based; conditions: dose 0.1-10 µM
[32] = tested on: Jurkat; assay: Effect on PTP1B level in human Jurkat cells at 0.1 to 10 uM incubated for 24 hrs by Western blot analysis; assay type: functional, cell-based; conditions: dose 0.1-10 µM
[33] = tested on: Jurkat; assay: Effect on STAT1 level in human Jurkat cells at 0.1 to 10 uM incubated for 24 hrs by Western blot analysis; assay type: functional, cell-based; conditions: dose 0.1-10 µM
[34] = tested on: Splenocyte; assay: Induction of cell proliferation in anti-CD3/CD28-stimulated mouse splenocytes incubated for 3 days by CFSE dye based flow cytometry; assay type: functional; conditions: dose 1.25-5 µM, time 3.0 day
[35] = tested on: B16-F10; assay: Inhibition of cell growth in IFN-gamma-treated mouse B16-F10 cells assessed as reduction in cell confluency measured upto 96 hrs; assay type: functional, cell-based; conditions: dose 1.25-5 µM

T4 sequence (P40338 whole entry, looked up): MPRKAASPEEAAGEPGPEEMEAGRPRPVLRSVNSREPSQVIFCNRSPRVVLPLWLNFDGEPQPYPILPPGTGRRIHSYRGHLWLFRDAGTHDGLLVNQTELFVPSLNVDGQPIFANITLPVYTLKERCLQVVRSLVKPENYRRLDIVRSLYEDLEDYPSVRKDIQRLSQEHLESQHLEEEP
T4 sequence (P80560 whole entry, looked up): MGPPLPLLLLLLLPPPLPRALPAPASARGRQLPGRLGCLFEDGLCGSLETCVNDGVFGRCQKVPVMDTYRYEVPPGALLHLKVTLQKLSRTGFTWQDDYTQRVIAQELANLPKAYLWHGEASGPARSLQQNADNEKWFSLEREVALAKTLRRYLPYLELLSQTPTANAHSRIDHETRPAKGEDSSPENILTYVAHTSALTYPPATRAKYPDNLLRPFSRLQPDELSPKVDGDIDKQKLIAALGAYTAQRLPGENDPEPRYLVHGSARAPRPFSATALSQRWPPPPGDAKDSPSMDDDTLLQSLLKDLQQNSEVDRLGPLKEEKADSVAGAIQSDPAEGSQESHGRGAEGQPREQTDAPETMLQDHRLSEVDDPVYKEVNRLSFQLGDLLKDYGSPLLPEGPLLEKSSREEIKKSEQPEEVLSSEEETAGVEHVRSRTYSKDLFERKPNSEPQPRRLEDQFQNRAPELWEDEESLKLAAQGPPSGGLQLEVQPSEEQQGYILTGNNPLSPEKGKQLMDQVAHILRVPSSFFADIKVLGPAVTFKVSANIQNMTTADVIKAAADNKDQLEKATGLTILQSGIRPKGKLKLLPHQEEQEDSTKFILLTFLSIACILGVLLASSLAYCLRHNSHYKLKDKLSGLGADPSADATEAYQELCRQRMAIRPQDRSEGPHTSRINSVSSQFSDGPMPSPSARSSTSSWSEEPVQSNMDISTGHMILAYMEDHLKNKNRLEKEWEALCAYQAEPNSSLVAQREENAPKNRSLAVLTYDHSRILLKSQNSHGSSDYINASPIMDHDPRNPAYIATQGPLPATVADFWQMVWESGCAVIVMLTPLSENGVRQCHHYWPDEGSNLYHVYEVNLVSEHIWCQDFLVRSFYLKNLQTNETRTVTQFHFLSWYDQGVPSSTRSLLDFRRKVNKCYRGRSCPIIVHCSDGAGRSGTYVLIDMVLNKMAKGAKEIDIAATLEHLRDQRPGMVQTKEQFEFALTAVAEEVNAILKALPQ
Chain of von Hippel-Lindau disease tumor suppressor/Tyrosine-protein phosphatase non-receptor type 1 (P40337 whole entry, one chain of several): as the sequence (P40337 whole entry, looked up, one chain of several) above

CC(C)(C)C(=O)Nc1ccc2c(c1)C(=O)C(=O)c1ccccc1-2
pIC50 [1]: 6.02

O=C1CN(c2c(O)cc3ccc(Br)cc3c2F)S(=O)(=O)N1
pIC50 [2]: 7.94
pIC50 [3]: 8.08

Cc1ncsc1-c1ccc([C@H](C)NC(=O)[C@@H]2C[C@@H](O)CN2C(=O)[C@@H](NC(=O)CCCCCNC(=O)Cn2cc(-c3ccc4cc(O)c(N5CC(=O)NS5(=O)=O)c(F)c4c3)cn2)C(C)(C)C)cc1
Activity [4]: 43%
Activity [5]: 81%
Activity [6]: 99%
pEC50 [7]: 6.66
pEC50 [8]: 4.88
Activity [9]: Active
Activity [10]: inactive
Activity [11]: inactive
Activity [12]: inactive
Activity [13]: inactive
Activity [14]: inactive
Activity [15]: inactive
Activity [16]: inactive
Activity [17]: Active
Activity [18]: Active
Activity [19]: inactive
Activity [20]: inactive
Activity [21]: inactive
Activity [22]: inactive
Activity [23]: inactive
Activity [24]: inactive
Activity [25]: Active
Activity [26]: inactive
Activity [27]: Tde
Activity [28]: inactive
Activity [29]: Dose-Dependent Effect
Activity ([30]; DEGRADER): Active
Activity [30]: inactive
Activity ([31]; DEGRADER): Active
Activity [31]: inactive
Activity [32]: inactive
Activity [33]: inactive
Activity [34]: Dose-Dependent Effect
inhibition [35]: Dose-Dependent Effect
